Legend:
[1] = system: HL-60; experiment: Evaluated for its ability to induce phagocytosis in human myeloid leukemia cells (HL-60); assay type: functional; design: unit not given here
[2] = molecular target: T1, Vitamin D3 receptor (Homo sapiens) (UniProt P11473)
T1 sequence (whole entry): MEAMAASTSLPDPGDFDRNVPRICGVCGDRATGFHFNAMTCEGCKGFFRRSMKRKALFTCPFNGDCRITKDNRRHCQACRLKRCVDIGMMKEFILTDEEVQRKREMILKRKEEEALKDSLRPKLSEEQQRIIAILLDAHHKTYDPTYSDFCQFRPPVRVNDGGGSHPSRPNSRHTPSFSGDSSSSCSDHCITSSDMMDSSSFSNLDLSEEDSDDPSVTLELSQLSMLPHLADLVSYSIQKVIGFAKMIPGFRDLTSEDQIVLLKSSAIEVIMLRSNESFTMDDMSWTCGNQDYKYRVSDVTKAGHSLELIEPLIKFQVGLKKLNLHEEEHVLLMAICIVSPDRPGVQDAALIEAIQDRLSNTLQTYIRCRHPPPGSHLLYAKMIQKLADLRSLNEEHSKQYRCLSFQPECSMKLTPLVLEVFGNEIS
Description: Evaluated for its binding affinity towards cytosol receptor in human myeloid leukemia cells (HL-60), by using 1-alpha,25-(OH)2D3 as radioligand

Structure (SMILES) | Phagocytosis [1] | Binding activity [2]
C=C1/C(=C\C=C2/CCC[C@]3(C)[C@@H]([C@H](C)CC[C@@H](O)C(C)C)CC[C@@H]23)C[C@@H](O)C[C@@H]1O [TACALCITOL] | 1 | 1
C=C1CC[C@H](O)C/C1=C/C=C1\CCC[C@]2(C)[C@@H]([C@H](C)CCC(F)(F)C(C)(C)O)CC[C@@H]12 | 200 | 1000
C[C@H](CCC(F)(F)C(C)(C)O)[C@H]1CC[C@H]2/C(=C/[C@@H]3OOCC4=C3C[C@@H](O)CC4)CCC[C@]12C.C[C@H](CCC(F)(F)C(C)(C)O)[C@H]1CC[C@H]2/C(=C/[C@H]3OOCC4=C3C[C@@H](O)CC4)CCC[C@]12C | 45 | 1000
C=C1/C(=C\C=C2/CCC[C@]3(C)[C@@H]([C@H](C)CCCC(C)C)CC[C@@H]23)C[C@@H](O)C[C@@H]1O [ALFACALCIDOL] | 320 | 800
C[C@H](CCCC(C)(C)O)[C@H]1CC[C@H]2/C(=C/[C@H]3OOCC4=C3C[C@@H](O)C[C@@H]4O)CCC[C@]12C | 130 | 800
C[C@H](CCCC(O)(C(F)(F)F)C(F)(F)F)[C@H]1CC[C@H]2/C(=C/[C@@H]3OOCC4=C3C[C@@H](O)CC4)CCC[C@]12C.C[C@H](CCCC(O)(C(F)(F)F)C(F)(F)F)[C@H]1CC[C@H]2/C(=C/[C@H]3OOCC4=C3C[C@@H](O)CC4)CCC[C@]12C | 30 | 1500
CC(C)[C@H](O)CC[C@@H](C)[C@H]1CC[C@H]2/C(=C/[C@H]3OOCC4=C3C[C@@H](O)C[C@@H]4O)CCC[C@]12C | 150 | 800
CC(C)CCC[C@@H](C)[C@H]1CC[C@H]2/C(=C/[C@H]3OOCC4=C3C[C@@H](O)C[C@@H]4O)CCC[C@]12C | >1000 | > 10000
C[C@H](CCCC(C)(C)O)[C@H]1CC[C@H]2/C(=C/[C@H]3OOCC4=C3C[C@@H](O)CC4)CCC[C@]12C | 120 | 3000
C[C@H](CCCC(C)(C)O)[C@H]1CC[C@H]2/C(=C/[C@@H]3OOCC4=C3C[C@@H](O)CC4)CCC[C@]12C | 130 | 3000
C[C@H](CCCC(C)(C)O)[C@H]1CC[C@H]2/C(=C/[C@@H]3OOCC4=C3C[C@@H](O)C[C@@H]4O)CCC[C@]12C | 200 | 800
CC(C)[C@H](O)CC[C@@H](C)[C@H]1CC[C@H]2/C(=C/[C@@H]3OOCC4=C3C[C@@H](O)C[C@@H]4O)CCC[C@]12C | 200 | 800
C=C1CC[C@H](O)C/C1=C/C=C1\CCC[C@]2(C)[C@@H]([C@H](C)CCCC(O)(C(F)(F)F)C(F)(F)F)CC[C@@H]12 | 200 | 50
C=C1CC[C@H](O)C/C1=C/C=C1\CCC[C@]2(C)[C@@H]([C@H](C)CCCC(C)(C)O)CC[C@@H]12 [CALCIFEDIOL ANHYDROUS] | 320 | 600
C=C1/C(=C\C=C2/CCC[C@]3(C)[C@@H]([C@H](C)CCCC(C)(C)O)CC[C@@H]23)C[C@@H](O)C[C@@H]1O [CALCITRIOL] | 1 | 
CC(C)CCC[C@@H](C)[C@H]1CC[C@H]2/C(=C/[C@@H]3OOCC4=C3C[C@@H](O)C[C@@H]4O)CCC[C@]12C | >1000 | > 10000

From ChEMBL document CHEMBL1123023, “Syntheses and differentiating action of vitamin D endoperoxides. Singlet oxygen adducts of vitamin D derivatives in human myeloid leukemia cells (HL-60)” (1985)
